Literature values, collected in article PMC3635145 (Journal of medicinal chemistry, 2013).

Target: T1, TbrPDEB1 (Trypanosoma brucei, UniProt Q8WQX9)
T1 sequence (Q8WQX9 1-930): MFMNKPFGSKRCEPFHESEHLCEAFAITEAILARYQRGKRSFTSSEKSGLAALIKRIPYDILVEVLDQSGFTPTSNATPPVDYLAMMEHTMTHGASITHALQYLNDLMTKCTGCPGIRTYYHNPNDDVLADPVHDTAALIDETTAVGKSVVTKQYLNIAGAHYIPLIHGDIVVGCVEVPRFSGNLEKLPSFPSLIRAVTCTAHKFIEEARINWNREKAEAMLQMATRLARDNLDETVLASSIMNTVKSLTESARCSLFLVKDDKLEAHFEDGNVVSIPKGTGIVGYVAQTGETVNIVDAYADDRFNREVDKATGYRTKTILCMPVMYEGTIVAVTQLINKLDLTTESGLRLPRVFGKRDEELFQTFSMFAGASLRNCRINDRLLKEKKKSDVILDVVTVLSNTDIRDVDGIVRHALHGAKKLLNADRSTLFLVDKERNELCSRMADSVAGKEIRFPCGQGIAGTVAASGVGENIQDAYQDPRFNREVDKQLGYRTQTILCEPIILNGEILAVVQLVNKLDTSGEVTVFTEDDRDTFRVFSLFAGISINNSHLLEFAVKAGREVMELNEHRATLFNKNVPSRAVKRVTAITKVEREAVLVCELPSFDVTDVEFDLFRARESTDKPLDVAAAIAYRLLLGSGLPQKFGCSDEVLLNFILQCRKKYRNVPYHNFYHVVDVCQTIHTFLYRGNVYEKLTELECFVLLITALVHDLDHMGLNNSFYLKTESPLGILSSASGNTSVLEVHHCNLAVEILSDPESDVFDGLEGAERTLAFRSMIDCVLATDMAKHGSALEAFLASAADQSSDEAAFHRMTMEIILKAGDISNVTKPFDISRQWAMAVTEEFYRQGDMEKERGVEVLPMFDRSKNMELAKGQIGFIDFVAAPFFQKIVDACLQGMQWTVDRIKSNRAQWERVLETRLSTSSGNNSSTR

## COc1ccc(C(=O)CC(C)C)cc1OCCCCO [compound 5, 1-(3-(4-hydroxybutoxy)-4-methoxyphenyl)-3-methylbutan-1-one]
  TbrPDEB1 inhibition (in words): appears to inhibit TbrPDEB1 to some extent
